Legend:
[1] = target: GmNFR5a^ECD (Glycine max, UniProt A5YJV9); assay: Microscale thermophoresis (MST) binding to GmNFR5a^ECD; design: species or system soybean (Glycine max); conditions: ligand dp6, His-tagged protein purified from Pichia pastoris, read-out: dissociation constant (K D) with GmNFR5a^ECD
Source text: The ectodomains of GmCERK1, GmNFR5a, and mutants were cloned into the yeast expression vector pPICZαA (Thermo Fisher Scientific, Shanghai, China) through the double digestion and ligation using the restriction endonuclease EcoRI/XbaI (NEB, Suzhou, China) and T4 ligase. Then, the linearized recombinant plasmid pPICZαA‐GmCERK1 and pPICZαA‐GmNFR5a were transformed into P. pastoris X‐33. The positive colonies were selected on YPDS medium (1% w/v yeast extract, 2% w/v peptone, 2% w/v glucose, 2% w/v agar, 100 μg/mL antibiotic Zeocin (Thermo Fisher Scientific)) plates and verified by direct DNA sequencing. Protein expression was carried out initially in BMGY media (100 mM potassium phosphate pH 6.0, 1.34% w/v YNB, 4 × 10^−5% w/v biotin, 1% v/v glycerol) at 28°C with shaking (180 rpm) until the OD600 reached 2.0–6.0. The cell pellet was transferred into BMMY medium (100 mM potassium phosphate pH 6.0, 1.34% w/v YNB, 4 × 10^−5% w/v biotin, 0.5% v/v methanol) and continuously supplied with the addition of 0.5% (v/v) methanol every day for 5 d. […]
GmCERK1^ECD, GmNFR5a^ECD, and all mutants were labeled with a fluorescent dye using the Monolith Protein Labeling Kit RED‐NHS second Generation (MO‐L011). […] The data were analyzed and fitted by plotting ligand concentrations against bound fractions using the MO.Affinity Analysis v3.0.5 software. […]

[2] = tested on: GmNFR5a-GmCERK1 interaction; assay: Co-immunoprecipitation of GmNFR5a-GFP with GmCERK1-HA in N. benthamiana; format: cell-based, soybean (Glycine max); conditions: Co-IP; N. benthamiana leaves treated 50 mg/L for 5 min
Experimental: Nicotiana benthamiana leaves were harvested 48 h post inoculation (hpi) after agroinfiltration. Samples were ground in liquid nitrogen and incubated for 30 min in a lysis buffer (50 mM Tris-HCl pH 8.0, 150 mM NaCl, 1.0% (v/v) NP-40, 0.1% SDS (w/v) and 0.1% protease inhibitor cocktail ([…]; Sigma, St. Louis, MI, USA)). Supernatant was collected by centrifugation at 21,000 g for 15 min and then incubated with GFP-trap beads (item No.: gta-20; Chromotek, Hauppauge, NY, USA) at 4°C for 2 h. The GFP-trap beads were pelleted by centrifugation at 500 g for 2 min and washed with lysis buffer at least four times. Proteins were eluted by boiling the beads in a protein loading buffer for 10 min and detected by immunoblot analysis with anti-GFP (Cat No. M20004; Abmart, Shanghai, China) or anti-HA (Cat No. M20013; Abmart, Shanghai, China).

[3] = tested on: Phytophthora sojae P6497; assay: P. sojae infection of pretreated soybean etiolated hypocotyls; format: in vivo, Phytophthora sojae on soybean (Glycine max); conditions: for biomass of P. sojae: dp6, 50 mg/L, 24 h before inoculation with zoospores, etiolated hypocotyls, 48 hpi, genomic DNA qPCR, vs mock dH2O
Experimental: For soybean etiolated hypocotyls inoculation assays, etiolated hypocotyls of soybean (cultivar Williams) were inoculated with P. sojae zoospore suspensions (100 zoospores). Infected etiolated hypocotyls were maintained at 25°C in the dark for 2 d, photographed and collected for biomass detection. For soybean hairy‐root inoculation assays, transgenic hairy roots were soaked in CTOS/CSOS (50 mg/L) or mock (dH2O) for 12 h and then were infected with red fluorescent protein (RFP)‐labeled P. sojae strain P6497, and fluorescence was visualized in the infected area of soybean hairy root and the biomass of P. sojae was determined by qRT‐PCR at 48 hpi.

[4] = tested on: soybean leaf discs (ROS burst); assay: Luminol-based ROS burst assay in soybean leaf discs; format: cell-based, soybean (Glycine max); conditions: 50 mg/L, leaf discs of soybean Williams, dH2O negative control
Experimental: To measure the oxidation burst, leaf discs (Ø 0.5 cm) collected from 2-week-old soybean (cultivar Williams) were floated overnight in 200 μL sterile H2O in a 96-well plate. The H2O was replaced with 200 μL reaction buffer containing luminol/peroxidase ([…] luminol, 10 mg/mL peroxidase) and chitooligosaccharides treatments (50 mg/L). flg22 was used as a positive control. The luminescence was measured using a GLOMAX96 microplate luminometer (Promega, Madison, WI, USA). The experiments for MAPK activation were carried out as described previously ([[…] et al., 2014]). The MAPK activation was determined by immunoblots with anti-phospho-p44/42 MAPK antibody (#4370; Cell Signaling, Boston, MA, USA).

Chain of GmNFR5a^ECD (A5YJV9 entry or part of it): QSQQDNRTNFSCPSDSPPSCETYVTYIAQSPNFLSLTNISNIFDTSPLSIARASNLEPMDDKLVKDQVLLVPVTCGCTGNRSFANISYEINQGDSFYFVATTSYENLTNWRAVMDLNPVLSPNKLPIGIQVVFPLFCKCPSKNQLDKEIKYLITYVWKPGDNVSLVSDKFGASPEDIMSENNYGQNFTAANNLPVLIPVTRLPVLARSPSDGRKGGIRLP

Row | Structure (SMILES) | Kd [1] [mM] | GmNFR5a interaction with GmCERK1 [2] | biomass of P. sojae [3] | plant resistance elicited, compared with CTOS ([3]; soybean etiolated hypocotyls, P. sojae (Figure 1E, F)) | ROS burst [4]
1 | N[C@H]1[C@H](O[C@H]2[C@H](O)[C@@H](N)[C@H](O[C@H]3[C@H](O)[C@@H](N)[C@H](O[C@H]4[C@H](O)[C@@H](N)[C@H](O[C@H]5[C@H](O)[C@@H](N)[C@H](O[C@H]6[C@H](O)[C@@H](N)C(O)O[C@@H]6CO)O[C@@H]5CO)O[C@@H]4CO)O[C@@H]3CO)O[C@@H]2CO)O[C@H](CO)[C@@H](O)[C@@H]1O (some centres unmarked) [CSOS (dp6), chitosan oligosaccharide] | 7.04 ± 2.62 | interacted strongly | significantly lower | somewhat weaker | –
2 | CC(=O)N[C@H]1[C@H](O[C@H]2[C@H](O)[C@@H](NC(C)=O)[C@H](O[C@H]3[C@H](O)[C@@H](NC(C)=O)C(O)O[C@@H]3CO)O[C@@H]2CO)O[C@H](CO)[C@@H](O[C@@H]2O[C@H](CO)[C@@H](O[C@@H]3O[C@H](CO)[C@@H](O[C@@H]4O[C@H](CO)[C@@H](O)[C@H](O)[C@H]4NC(C)=O)[C@H](O)[C@H]3NC(C)=O)[C@H](O)[C@H]2NC(C)=O)[C@@H]1O (some centres unmarked) [CTOS (dp6), chitin oligosaccharide] | 20.5 ± 6.07 | interacted strongly | significantly lower | – | stronger ROS burst than that of CTOS (dp4)
